In US7504537B2, “Hydroxamic acid derivative and MMP inhibitor containing the same as active ingredient” (Dainippon Sumitomo Pharma Co., Ltd., priority 2001, dated 2009):
pIC50: −log10 of the molar value.

Tests used:
MMP-2 = biological target: T1, MMP-2 (Homo sapiens, UniProt P08253); experiment: Test 3 MMP-2 inhibition activity test (gelatinase activity assay kit); assay type: biochemical; details: activated human MMP-2, biotin labeled gelatin
T1 construct: purchased Boeringer Manheim (Roche Diagnostics)
T1 sequence (P08253 110-660): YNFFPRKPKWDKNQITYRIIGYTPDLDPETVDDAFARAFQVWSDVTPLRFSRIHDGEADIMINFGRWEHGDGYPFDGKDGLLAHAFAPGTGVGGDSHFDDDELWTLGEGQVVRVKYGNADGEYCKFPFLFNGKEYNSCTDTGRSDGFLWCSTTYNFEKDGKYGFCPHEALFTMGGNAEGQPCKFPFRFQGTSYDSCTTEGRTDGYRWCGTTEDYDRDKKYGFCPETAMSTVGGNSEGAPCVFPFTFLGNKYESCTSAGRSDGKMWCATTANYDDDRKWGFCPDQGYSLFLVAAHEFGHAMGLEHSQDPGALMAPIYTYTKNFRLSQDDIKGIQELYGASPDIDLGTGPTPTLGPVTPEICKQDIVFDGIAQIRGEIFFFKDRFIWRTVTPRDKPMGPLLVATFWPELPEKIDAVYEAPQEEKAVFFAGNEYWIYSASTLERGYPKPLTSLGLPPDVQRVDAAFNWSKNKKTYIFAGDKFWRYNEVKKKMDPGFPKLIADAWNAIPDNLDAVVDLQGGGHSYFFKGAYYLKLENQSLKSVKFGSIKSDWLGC
Experimental: TTC buffer solution was attached to a MMP-2 enzyme assay kit, and the solution was made of 50 mM tris, 1 mM calcium chloride solution and 0.05% Triton X-100 solution, and was adjusted to pH 7.5.
Test 3 MMP-2 Inhibition Activity Test
MMP-2 enzyme assay kit (Gelatinase Activity Assay, Roche.Diagonistics) was used.
A mixture of 1.2U human MMP-2 (20 μl, Boeringer Manheim 30U freezed dry product), TTC buffer (980 μl) and 2.5 mM 4-aminophenyl mercuric acetate solution (144 μl) was incubated at 37° C. for 30 minutes and then it was preserved under ice cooling until use.
A mixture of DMSO solution (2 μl) containing a definite concentration of the compound, biotin labeled gelatin (188 μl) and activated MMP-2 solution (10 μl) was put on a 96 well-assay plate (protein nonabsorbance type), well agitated and incubated at 37° C. for 1 hour. This solution was transferred to a Streptavidin-coating plate and agitated at 15° C, to 30° C. for 30 minutes. And then the solution was washed with TTC buffer solution (200 μl) three times. Thereto was added Streptavidin-POD (200 μl) and the mixture was agitated at 15° C. to 25° C. for 60 minutes, followed by washing with TTC buffer (200 μl) three times. Then, ABTS solution (200 μl) was added thereto and after standing at room temperature for 40 minutes, furuorescence intensity was measure at 405 nm and IC50 was calculated.
In case of the above test, a control and a blank were prepared when the well was prepared as mentioned below. DMSO (2 μl) was used as a control instead of a sample solution. In the case of a blank, DMSO (2 μl) instead of the sample solution and the solution (10 μl) prepared in the same manner as preparation of activated MMP-2 solution but without adding 1.2U human MMP-2, instead of activated MMP-2 solution (10 μl), were used.

MMP-14 (MT1-MMP) = biological target: T2, MMP-14 (MT1-MMP) (Homo sapiens, UniProt P50281); experiment: Test 5 MMP-14 (MT1-MMP) inhibiting activity test; assay type: biochemical; details: human recombinant MT1-MMP, 37° C.; read-out: MMP-14 inhibition activity value
T2 construct: purchased Biogenesis, supplied by Cosmobio (Nakarai Tesku)
Experimental: Test 5 MMP-14 (MTI-MMP) Inhibiting Activity Test
Human recombinant MTI-MMP used the product prepared by Biogenesis and supplied by Cosmobio (Nakarai Tesku).
An assay buffer solution (70 μl, pH 7.5 solution containing 0.1M Tris-HCl solution, 0.1M calcium chloride solution, 10 mM sodium chloride solution and 0.05% Brij-35 solution), 0.1 w/w % a compound in DMSO (10 μl), MMP substrate solution (MOCAc-Pro-Leu-Gly-Leu-A2pr(DNP)-Ala-Arg-NH2 (Peptide Lab.) diluted with the assay buffer solution (50 μM, 10 μl)) and human recombinant MT1-MMP (0.4 pg/10 μl/well) were well agitated under stirring. The enzyme activity of the mixture was measured based on fluorescence intensity (λex 320 nm/λem 405 nm) by a fluorescence reader. After the mixture was incubated at 37° C. for 0.5 hour, the fluorescence intensity (λex 320 nm/λem 405 nm) was measured every hour, and IC50 was calculated.
The inhibition value was calculated by withdrawing average value of blank well from fluorescence mean value of well in which MT1-MMP was added. As the blank was used the mixed solution prepared by adding assay buffer (10 μl) instead of MT1-MMP solution.

| SMILES | pIC50 (MMP-2) | pIC50 (MMP-14 (MT1-MMP)) |
| --- | --- | --- |
| CCOC(=O)CCN(C1(C(=O)NO)CCOCC1)S(=O)(=O)c1ccc(Oc2ccc(S(C)(=O)=O)cc2)cc1 [Example 31, Ethyl N-{4-[(hydroxyamino)carbonyl]tetrahydro-2H-pyran-4-yl}-N-({4-[4-(methylsulfonyl)phenoxy]phenyl}sulfonyl)-β-alaninate] | 6.10 | < 5.30 |
| CCOC(=O)CN(C1(C(=O)NO)CCC1)S(=O)(=O)c1ccc(Oc2ccc(S(C)(=O)=O)cc2)cc1 [Example 46, Ethyl N-{1-[(hydroxyamino)carbonyl]cyclobutyl}-N-({4-[4-(methylsulfonyl)phenoxy]phenyl}sulfonyl)glycinate] | < 7.00 | < 5.82 |
| CS(=O)(=O)c1ccc(Oc2ccc(CC3Sc4ccc(C(=O)O)cc4N(CC(=O)NO)C3=O)cc2)cc1 (stereo not shown) [Example 50] | < 7.00 | < 6.00 |
| CC(C)OCCN(CC(=O)NO)S(=O)(=O)c1ccc(Oc2ccc(S(C)(=O)=O)cc2)cc1 [Example 3, N^1-hydroxy-N^2-(2-isopropoxyethyl)-N^2-({4-[4-(methylsulfonyl)phenoxy]phenyl}sulfonyl)glycinamide] | < 7.00 | 6.76 |
| CC(C)CN(C1(C(=O)NO)CCCC1)S(=O)(=O)c1ccc(Oc2ccc(S(C)(=O)=O)cc2)cc1 [Example 2, N-hydroxy 1-[isobutyl({4-[4-(methylsulfonyl)phenoxy]phenyl}sulfonyl)amino]cyclopentanecarboxamide] | > 7.00 | 5.42 |
| COc1ccc(Oc2ccc(CC3Sc4ccc(C(=O)O)cc4N(CC(=O)NO)C3=O)cc2)cc1 (stereo not shown) [compound 1, reference compound] | < 7.00 | 7.06 |
| CCOC(=O)CN(CC(=O)NO)S(=O)(=O)c1ccc(Oc2ccc(S(C)(=O)=O)cc2)cc1 [Example 22, Ethyl N-{[(hydroxyamino)carbonyl]methyl}-N-({4-[4-(methylsulfonyl)phenoxy]phenyl}sulfonyl)-glycinate] | 5.92 | 6.18 |
| CCOC(=O)CN(C1(C(=O)NO)CCCC1)S(=O)(=O)c1ccc(Oc2ccc(S(C)(=O)=O)cc2)cc1 [Example 23, Ethyl N-{1-[(hydroxyamino)carbonyl]cyclopentyl}-N-({4-[4-(methylsulfonyl)phenoxy]phenyl}sulfonyl)glycinate] | 5.68 | < 5.30 |
| CC(C)CN(C1(C(=O)NO)CCOCC1)S(=O)(=O)c1ccc(Oc2ccc(S(C)(=O)=O)cc2)cc1 [Example 15, N-Hydroxy-4-[isobutyl({4-[4-(methylsulfonyl)phenoxy]phenyl}sulfonyl)amino]tetrahydro-2H-pyrane-4-carboxamide] | 6.52 | < 5.30 |
| CC(C)CN(C1(C(=O)NO)CCC1)S(=O)(=O)c1ccc(Oc2ccc(S(C)(=O)=O)cc2)cc1 [Example 18, N-Hydroxy-1-[isobutyl({4-[4-(methylsulfonyl)phenoxy]phenyl}sulfonyl)amino]cyclobutanecarboxamide] |  | 6.10 |
| CC(C)(C(=O)NO)N(Cc1ccccc1)S(=O)(=O)c1ccc(Oc2ccc(S(C)(=O)=O)cc2)cc1 [Example 10, N′^2′-Benzyl-N′^1′-hydroxy-2-methyl-N′^2′-({4-[4-(methylsulfonyl)phenoxy]phenyl}sulfonyl)alaninamide] | 5.62 | < 5.30 |
| CS(=O)(=O)c1ccc(Oc2ccc(S(=O)(=O)NC3(C(=O)NO)CCC3)cc2)cc1 [Example 48, N-Hydroxy-1-[({4-[4-(methylsulfonyl)phenoxy]phenyl}sulfonyl)amino]cyclobutanecarboxamide] | < 7.00 | < 5.82 |
| CCOC(=O)CCN(C1(C(=O)NO)CCCC1)S(=O)(=O)c1ccc(Oc2ccc(S(C)(=O)=O)cc2)cc1 [Example 26, Ethyl N-{1-[(hydroxyamino)carbonyl]cyclopentyl}-N-({4-[4-(methylsulfonyl)phenoxy]phenyl}sulfonyl)-β-alaninate] | 6.52 | 6.40 |
| CS(=O)(=O)c1ccc(Oc2ccc(S(=O)(=O)N(Cc3ccccc3)C3(C(=O)NO)CCOCC3)cc2)cc1 [Example 12, 4-[Benzyl({4-[4-(methylsulfonyl)phenoxy]phenyl}sulfonyl)amino]-N-hydroxytetrahydoro-2H-pyrane-4-carboxamide] | > 7.00 | 6.05 |
| COCCN(CC(=O)NO)S(=O)(=O)c1ccc(Oc2ccc(S(C)(=O)=O)cc2)cc1 [Example 44, N^1-Hydroxy-N^2-(2-methoxyethyl)-N^2-({4-[4-(methylsulfonyl)phenoxy]phenyl}sulfonyl)glycinamide] | < 7.00 | 6.46 |
| CS(=O)(=O)c1ccc(Oc2ccc(S(=O)(=O)N(CC(=O)O)CC(=O)NO)cc2)cc1 [Example 24, N-{[(Hydroxyamino)carbonyl]methyl}-N-({4-[4-(methylsulfonyl)phenoxy]phenyl}sulfonyl)-glycine] | < 5.00 | < 5.30 |
| CS(=O)(=O)c1ccc(Oc2ccc(S(=O)(=O)NCC(=O)NO)cc2)cc1 [Example 13, N′^1′-Hydroxy-N′^2′-({4-[4-(methylsulfonyl)phenoxy]phenyl}sulfonyl)glycinamide] | 6.05 | < 5.30 |
| CS(=O)(=O)c1ccc(Oc2ccc(S(=O)(=O)N(CC(=O)NO)Cc3ccncc3)cc2)cc1 [Example 42, N′^1′-Hydroxy-N′^2′-({4-[4-(methylsulfonyl)phenoxy]phenyl}sulfonyl)-N′^2′-(4-pyridinylmethyl)glycinamide] | > 7.00 | < 5.30 |
| CCOCCN(C1(C(=O)NO)CCCC1)S(=O)(=O)c1ccc(Oc2ccc(S(C)(=O)=O)cc2)cc1 [Example 45, 1-[(2-Ethoxyethyl)({4-[4-(methylsulfonyl)phenoxy]phenyl}sulfonyl)amino]-N-hydroxycyclopentanecarboxamide] | < 7.00 | < 5.82 |
| CS(=O)(=O)c1ccc(Oc2ccc(S(=O)(=O)N(CCC(=O)O)CC(=O)NO)cc2)cc1 [Example 36, N-[2-(Hydroxyamino)-2-oxoethyl]-N-({4-[4-(methylsulfonyl)phenoxy]phenyl}sulfonyl)-β-alanine] | 5.54 | 6.03 |
| COCCCN(CC(=O)NO)S(=O)(=O)c1ccc(Oc2ccc(S(C)(=O)=O)cc2)cc1 [Example 43, N^1-Hydroxy-N^2-(3-methoxypropyl)-N^2-({4-[4-(methylsulfonyl)phenoxy]phenyl}sulfonyl)glycinamide] | 5.82 | 7.09 |
| CS(=O)(=O)c1ccc(Oc2ccc(S(=O)(=O)N(CCC(=O)O)C3(C(=O)NO)CCCC3)cc2)cc1 [Example 27, N-{1-[(Hydroxyamino)carbonyl]cyclopentyl}-N-({4-[4-(methylsulfonyl)phenoxy]phenyl}sulfonyl)-β-alanine] | < 5.00 | < 5.30 |
